Tests used:
[1] = Selectivity ratio of IC50 for PDE1B to IC50 for PDE9
[2] = Selectivity ratio of IC50 for PDE1A to IC50 for PDE9
[3] = Inhibition of PDE9 by spectrophotometric analysis

## C[C@@H]1CN(Cc2cccc(F)c2)C[C@H]1c1nn2c(C3CCOCC3)ncc2c(=O)[nH]1
[1]
  Ratio IC50: > 1000
[2]
  Ratio IC50: > 1000
[3]
  IC50: < 1000 nM

## C[C@@H]1CN(Cc2ncccn2)C[C@H]1c1nn2c(C3CCOCC3)ncc2c(=O)[nH]1
[3]
  IC50: > 10000 nM

## C[C@@H]1CN(Cc2cnccn2)C[C@H]1c1nn2c(C3CCOCC3)ncc2c(=O)[nH]1
[3]
  IC50: 1000 nM
